The target of test [1] is T1, human PRS protein (His-Avi-hEPRS (998-1512)) (Homo sapiens, UniProt P07814).
T1 construct: to construct His-Avi-hEPRS (998-1512) expression plasmid; His tag (N); Avi tag (N); TEV cleavage site (ENLYFQG, then S; inferred from the forward primer hEPRS-TEV-NheF) (N); made in house; host or cells: E. coli BL21(DE3)
T1 sequence (P07814 998-1512 limits assumed): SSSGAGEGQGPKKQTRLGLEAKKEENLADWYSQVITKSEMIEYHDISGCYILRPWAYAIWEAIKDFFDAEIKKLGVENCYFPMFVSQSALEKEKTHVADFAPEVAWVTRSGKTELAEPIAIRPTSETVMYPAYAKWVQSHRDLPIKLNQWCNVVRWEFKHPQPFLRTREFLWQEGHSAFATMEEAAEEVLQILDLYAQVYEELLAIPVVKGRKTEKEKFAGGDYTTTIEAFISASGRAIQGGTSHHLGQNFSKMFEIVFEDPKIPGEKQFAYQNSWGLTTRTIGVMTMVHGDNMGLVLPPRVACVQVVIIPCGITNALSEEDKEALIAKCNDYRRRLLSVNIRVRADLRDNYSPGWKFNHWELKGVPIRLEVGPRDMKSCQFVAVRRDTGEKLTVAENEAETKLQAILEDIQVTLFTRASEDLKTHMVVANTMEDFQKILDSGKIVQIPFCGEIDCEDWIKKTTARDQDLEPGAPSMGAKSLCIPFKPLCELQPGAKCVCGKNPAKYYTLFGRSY
In words: PRS inhibitory activity ([32P]pyrophosphate exchange enzyme assay). The format is biochemical. To be noted: 300 nM test compound; read-out: inhibitory rate (%) of PRS. On the procedure:
The PRS inhibitory activity of the compounds of the present invention was evaluated by the following method.
An expression plasmid of Catalytic Domain of human EPRS was obtained by PCR using human skeletal muscle cDNA Library (Takara Bio Inc.) as a template and 2 kinds of Primers 5′-[…]-3′ (hEPRS-TEV-NheF) (SEQ ID NO: 1) and 5′-[…]-3′ (hEPRS-St-Not-R) (SEQ ID NO: 2). PCR was performed using PrimeStar GXL DNA Polymerase (Takara Bio Inc.) and included (1) 98° C., 1 min, (2) 35 cycles of 98° C., 10 sec, 65° C., 10 sec, 72° C., 1 min, and (3) reaction at 72° C., 1 min. This was cleaved with Nhe I and Not I (Takara Bio Inc.) and inserted using Ligation High (TOYOBO CO., LTD.) into the Nhe I/Not I site of pET21a (Novagen) with His-Avitag inserted thereinto. This was introduced into ECOS JM109 (NIPPON GENE CO., LTD.) to construct His-Avi-hEPRS (998-1512) expression plasmid.
Recombinant human PRS protein was prepared by transforming the His-Avi-hEPRS (998-1512) expression plasmid prepared above into ECOS Competent E. coli BL21(DE3) (NIPPON GENE CO., LTD.). Escherichia coli obtained by transformation was inoculated into 300 mL of LB medium (1% peptone, 0.5% yeast extract, 0.5% sodium chloride, 0.01% ampicillin) and cultured at 30° C. for 16 hr. The obtained culture medium was transferred into a jar culture tank charged with 6 L of the main fermentation medium (0.3% potassium dihydrogen phosphate, 0.6% disodium hydrogen phosphate, 0.1% ammonium chloride, 0.05% sodium chloride, 0.024% magnesium sulfate, 0.02% NEWPOL LB-625, 1.5% sorbitol, 1.5% casamino acid, 0.5% yeast extract, 0.01% ampicillin) and culturing was started at 37° C., quantity of airflow 5 L/min, stirring rotating speed 400 rpm. At the time point when the turbidity of the culture medium reached about 550 Klett units, the culture temperature was lowered to 16° C., isopropyl-β-D-thiogalactopyranoside (IPTG) was added to the final concentration 0.1 mM, and culturing was performed for another 16 hr to induce expression of human PRS. After completion of culturing, the culture medium was centrifuged at 5,000 rpm for 10 min. The obtained human PRS expressing Escherichia coli was suspended in a buffer containing 50 mM Tris-HCl (pH 8.0), 150 mM NaCl, 1 mM DTT, 5 U/ml Benzonase, 20 mM Imidazole and sonicated using Sonifier (BRANSON). The homogenate was centrifuged (33,000×G, 60 min, Beckman Coulter), the obtained supernatant was subjected to adsorption by passage through Ni-NTA Superflow (QIAGEN) column equilibrated in advance with 50 mM Tris-HCl (pH 8.0), 300 mM NaCl, 1 mM DTT, and elution was performed with a buffer containing 50 mM Tris-HCl (pH 8.0), 300 mM NaCl, 1 mM DTT, 250 mM Imidazole. Furthermore, gel filtration was performed using Superdex200 pg column equilibrated in advance with a buffer containing 50 mM Tris-HCl (pH 8.0), 150 mM NaCl, 1 mM DTT, 10% glycerol to give purified human PRS protein. The protein concentration was measured using BCA Protein Assay Kit (PIERCE) and BSA as the standard.
A test compound was dissolved in 5 μL of an assay buffer (50 mM Tris-HCl (pH 7.5), 20 mM KCl, 1 mM DTT, 0.01% Tween 20) and incubated for 60 min with 5 μL of 40 nM human PRS protein dissolved in the assay buffer containing 40 mM MgCl2. An enzyme reaction of the human PRS protein was started by adding 10 μL of a substrate solution containing 300 μM ATP, 160 μM L-Proline, 400 μM pyrophosphate, [^32P]pyrophosphate (PerkinElmer) prepared to 1 MBq/mL. After incubation at room temperature for 30 min, the reaction was discontinued by adding 50 μL of discontinuation/washing solution (1M HCl, 200 mM sodium pyrophosphate) to the reaction mixture. The reaction solution was transferred to a filter plate (Merck Millipore, Billerica, Mass.) previously added with 200 μL of charcoal solution (0.5% HCl solution containing 10% charcoal (w/v)). […]

Test [2] concerns human ovarian cancer cells A2780. The test can be described thus: proliferation inhibitory activity against human ovarian cancer cell A2780 (CellTiter-Glo). To be noted: A2780, 72 h, 1 μM test compound, 3 days of culture, read-out: proliferation inhibitory rate (%) of A2780 cells. Type of test: cell-based. On the procedure: The proliferation inhibitory activity of the compound of the present invention against human ovarian cancer cell A2780 was evaluated by the following method.
Human ovarian cancer cells A2780 were seeded in a 384 well culture plate at 1000 cells in 30 μL of medium per well by using RPMI-1640 medium (Wako Pure Chemical Industries, Ltd.) containing 10% fetal bovine serum and penicillin/streptomycin. The next day, 10 μL of RPMI-1640 medium containing the test compound was added to the cells. After 3 days of culture, 20 μL of CellTiter-Glo Luminescent Cell Viability Assay solution (Promega) was added. The luminescence signal was measured using EnVision (PerkinElmer) and the inhibitory rate (%) of the test compound was calculated with a well free of seeding of cell as 100% inhibition.
(In general: ATP-based viability assays read luminescence as a measure of living cells.)

SMILES strings stand for the structures.

As for `O=C(NCc1cc(F)cc(-c2cnn(C3CC3)c2)c1)c1ncnc2nc(C3CCCC3)[nH]c12` [Example 14, 8-cyclopentyl-N-(3-(1-cyclopropyl-1H-pyrazol-4-yl)-5-fluorobenzyl)-7H-purine-6-carboxamide], in test [1], the inhibition at 0.3 µM stood at 100%. In test [2], the inhibition at 1 µM turned out to be 97%.
As for `Cc1cc(N2CCC3(CC3)C2=O)cc(C(=O)NCc2cc(F)cc(-c3cnn(C)c3)c2)n1` [Example 233, N-(3-fluoro-5-(1-methyl-1H-pyrazol-4-yl)benzyl)-6-methyl-4-(4-oxo-5-azaspiro[2.4]hept-5-yl)pyridine-2-carboxamide], in test [1], the inhibition at 0.3 µM is 100%. Moreover, the inhibition at 1 µM in test [2] is 70%.
The matching figures for `Cn1cc(-c2cc(C#N)cc(CNC(=O)c3ncnc4nc(C5CCCC5)[nH]c34)c2)cn1` [Example 16, N-(3-cyano-5-(1-methyl-1H-pyrazol-4-yl)benzyl)-8-cyclopentyl-7H-purine-6-carboxamide]: 102% and 93%.
With `Cn1cc(-c2cc(F)cc(CNC(=O)c3nccc4nc(C5CCCC5)n(CC#N)c34)c2)cn1` [Example 131, 3-(cyanomethyl)-2-cyclopentyl-N-(3-fluoro-5-(1-methyl-1H-pyrazol-4-yl)benzyl)-3H-imidazo[4,5-c]pyridine-4-carboxamide], in test [1], the inhibition at 0.3 µM amounted to 101%. Moreover, the inhibition at 1 µM in test [2] stood at 93%.
`Cn1cc(-c2cc(F)cc(CNC(=O)c3ncnc4nc(C5CCCCO5)n(C)c34)c2)cn1` (centres unmarked) [Example 63, N-(3-fluoro-5-(1-methyl-1H-pyrazol-4-yl)benzyl)-7-methyl-8-(tetrahydro-2H-pyran-2-yl)-7H-purine-6-carboxamide]: the inhibition at 0.3 µM in test [1] is 102%. In test [2], the inhibition at 1 µM turned out to be 98%.
Consider `Cc1cc(N2CC[C@@](C#N)(C3CC3)C2=O)nc(C(=O)NCc2cc(F)cc(-c3cnn(C)c3)c2)n1` [Example 238, 4-((3S)-3-cyano-3-cyclopropyl-2-oxopyrrolidin-1-yl)-N-(3-fluoro-5-(1-methyl-1H-pyrazol-4-yl)benzyl)-6-methylpyrimidine-2-carboxamide], for which the inhibition at 0.3 µM in test [1] is 101%. Besides, in test [2], the inhibition at 1 µM stood at 95%.
On to `Cn1ncc(-c2cc(F)cc(CNC(=O)c3ncnc4nc(C5CCCC5)[nH]c34)c2)n1` [Example 71, 8-cyclopentyl-N-(3-fluoro-5-(2-methyl-2H-1,2,3-triazol-4-yl)benzyl)-7H-purine-6-carboxamide], for which, in test [1], the inhibition at 0.3 µM was 100%. The inhibition at 1 µM in test [2] came out at 70%.
For the compound `Cn1c(C2CCCC2)nc2ccnc(C(=O)NCc3cc(F)cc(-c4cc[nH]c(=O)c4)c3)c21` [Example 97, 2-cyclopentyl-N-(3-fluoro-5-(2-oxo-1,2-dihydropyridin-4-yl)benzyl)-3-methyl-3H-imidazo[4,5-c]pyridine-4-carboxamide], the inhibition at 0.3 µM in test [1] stood at 101%. For the same compound, in test [2], the inhibition at 1 µM worked out at 98%.
Consider `Cn1cc(-c2cc(F)cc(CNC(=O)c3ncnc4nc(C5(F)CCCC5)[nH]c34)c2)cn1` [Example 27, 8-(1-fluorocyclopentyl)-N-(3-fluoro-5-(1-methyl-1H-pyrazol-4-yl)benzyl)-7H-purine-6-carboxamide], for which, in test [1], the inhibition at 0.3 µM is 99%. Further, the inhibition at 1 µM in test [2] worked out at 97%.
On to `Cn1cc(-c2cc(F)cc(CNC(=O)c3cc(N4CC[C@@](C#N)(C5CC5)C4=O)cc(C(F)F)n3)c2)cn1` [Example 214, 4-((3S)-3-cyano-3-cyclopropyl-2-oxopyrrolidin-1-yl)-6-(difluoromethyl)-N-(3-fluoro-5-(1-methyl-1H-pyrazol-4-yl)benzyl)pyridine-2-carboxamide], for which the inhibition at 0.3 µM in test [1] came out at 99%. For the same compound, the inhibition at 1 µM in test [2] was found to be 72%.
In the case of `Cn1cc(-c2cc(F)cc(CNC(=O)c3nc(N)nc4nc(C5CCCC5)[nH]c34)c2)cn1` [Example 42, 2-amino-8-cyclopentyl-N-(3-fluoro-5-(1-methyl-1H-pyrazol-4-yl)benzyl)-7H-purine-6-carboxamide], the inhibition at 0.3 µM in test [1] amounted to 98%. Besides, the inhibition at 1 µM in test [2] amounted to 59%.
For `Cn1cc(-c2ccnc(CNC(=O)c3ncnc4nc(C5CCCC5)n(C)c34)c2)cn1` [Example 52, 8-cyclopentyl-7-methyl-N-((4-(1-methyl-1H-pyrazol-4-yl)pyridin-2-yl)methyl)-7H-purine-6-carboxamide] the same measures were 99% and 69%.
Take `Cn1ncc2cccc(CNC(=O)c3nccc4nc(C5CCCC5)[nH]c34)c21` [Example 95, 2-cyclopentyl-N-((1-methyl-1H-indazol-7-yl)methyl)-3H-imidazo[4,5-c]pyridine-4-carboxamide]: the inhibition at 0.3 µM in test [1] was found to be 99%. Besides, the inhibition at 1 µM in test [2] was determined as 56%.
Turning to `Cc1cc(N2CC[C@@](C#N)(C3CC3)C2=O)cc(C(=O)NCc2cc(C#N)cc(-c3cnn(C)c3)c2)n1` [Example 167, 4-((3S)-3-cyano-3-cyclopropyl-2-oxopyrrolidin-1-yl)-N-(3-cyano-5-(1-methyl-1H-pyrazol-4-yl)benzyl)-6-methylpyridine-2-carboxamide], the inhibition at 0.3 µM in test [1] was determined as 99%. Further, the inhibition at 1 µM in test [2] amounted to 98%.
As to `O=C(NCc1cccc(Br)c1)c1nccc2nc(C3CCCC3)[nH]c12` [Example 82, N-(3-bromobenzyl)-2-cyclopentyl-3H-imidazo[4,5-c]pyridine-4-carboxamide], the inhibition at 0.3 µM in test [1] was 98%.

These data come from patent publication US10774083B2, “Heterocyclic amide compound” (TAKEDA PHARMACEUTICAL COMPANY LIMITED, priority 2016, dated 2020).
